Assay results published in patent US9326506B2, “Preparation method, agricultural composition and applications of natural brassinolide analogs” (CHENGDU NEWSUN CROPSCIENCE CO., LTD, priority 2012, dated 2016).

System: rice
Test: Low temperature assay on rice seedlings
Assay type: in vivo
Protocol: According to a low temperature assay, we measured parameters including plant height, number of leaf, area of leaf, number of tiller, weight of root at low temperature to completely determine effects of the natural brassinolide analogues on the resistance to low temperature of a plant.
The natural brassinolide analogues, BR1, BR2, BR3, BR4, BR5 and BR6, used herein, were those prepared by the method of Example 1. Respectively the analogues were dissolved into 95% (V/V) ethanol solution, and then diluted with pure water to 1 mg/L, 0.1 mg/L, 0.01 mg/L, 0.001 mg/L and 0.0001 mg/L. In addition, pure water was used as a control.
After rice seeds were disinfected by using 5% sodium hypochlorite solution treatment, they were rinsed with distilled water until their pH>7, placed into a petri dish in a dark incubator, and cultured by using water at 30° C.±2° C. for 9 days. Then respectively the nine-day-old etiolated seedlings of rice were immersed in the above solutions containing different concentrations of the natural brassinolide analogues or pure water, and cultured at the temperature of 1° C., 2° C., 3° C., 4° C. and 5° C. for 24 hr. The parameters including plant height, area of leaf and weight of root after 3, 6, 9 and 12 days and number of leaf and number of tiller after 12 days were measured.

What does the source list for `C=C(C(C)C)[C@@H](O)[C@H](O)[C@@H](C)[C@H]1CCC2C3COC(=O)C4C[C@H](O)[C@H](O)C[C@]4(C)C3CC[C@@]21C` (stereo partly shown) [BR3]?
Area of leaf (0.001 mg/l, 2 °C, 6 days): 11.6 cm^2; Height (0.001 mg/l, 2 °C, 6 days): 7.1 cm; Weight of root (0.001 mg/l, 2 °C, 6 days): 3.0 g; Area of leaf (0.001 mg/l, 2 °C, 9 days): 12 cm^2; Height (0.001 mg/l, 2 °C, 9 days): 7.1 cm; Weight of root (0.001 mg/l, 2 °C, 9 days): 3.1 g; Area of leaf (0.001 mg/l, 2 °C, 12 days): 13.1 cm^2; Height (0.001 mg/l, 2 °C, 12 days): 7.3 cm; Number of leaf (0.001 mg/l, 2 °C, 12 days): 3; Number of tiller (0.001 mg/l, 2 °C, 12 days): 3; Weight of root (0.001 mg/l, 2 °C, 12 days): 3.9 g; Area of leaf (0.001 mg/l, 3 °C, 3 days): 10 cm^2; Height (0.001 mg/l, 3 °C, 3 days): 7 cm; Weight of root (0.001 mg/l, 3 °C, 3 days): 2.5 g; Area of leaf (0.001 mg/l, 3 °C, 6 days): 12 cm^2; Height (0.001 mg/l, 3 °C, 6 days): 7.2 cm; Weight of root (0.001 mg/l, 3 °C, 6 days): 2.7 g; Area of leaf (0.001 mg/l, 3 °C, 9 days): 12.2 cm^2; Height (0.001 mg/l, 3 °C, 9 days): 7.3 cm; Weight of root (0.001 mg/l, 3 °C, 9 days): 2.9 g; Area of leaf (0.001 mg/l, 3 °C, 12 days): 13 cm^2; Height (0.001 mg/l, 3 °C, 12 days): 7.4 cm; Number of leaf (0.001 mg/l, 3 °C, 12 days): 3; Number of tiller (0.001 mg/l, 3 °C, 12 days): 2; Weight of root (0.001 mg/l, 3 °C, 12 days): 2.9 g; Area of leaf (0.001 mg/l, 4 °C, 3 days): 10 cm^2; Height (0.001 mg/l, 4 °C, 3 days): 7.1 cm; Weight of root (0.001 mg/l, 4 °C, 3 days): 2.5 g; Area of leaf (0.001 mg/l, 4 °C, 6 days): 12 cm^2; Height (0.001 mg/l, 4 °C, 6 days): 7.3 cm; Weight of root (0.001 mg/l, 4 °C, 6 days): 2.6 g; Area of leaf (0.001 mg/l, 4 °C, 9 days): 13 cm^2; Height (0.001 mg/l, 4 °C, 9 days): 7.4 cm; Weight of root (0.001 mg/l, 4 °C, 9 days): 2.9 g; Area of leaf (0.001 mg/l, 4 °C, 12 days): 13.1 cm^2; Height (0.001 mg/l, 4 °C, 12 days): 7.5 cm; Number of leaf (0.001 mg/l, 4 °C, 12 days): 3; Number of tiller (0.001 mg/l, 4 °C, 12 days): 2; Weight of root (0.001 mg/l, 4 °C, 12 days): 2.9 g; Area of leaf (0.001 mg/l, 5 °C, 3 days): 10.2 cm^2; Height (0.001 mg/l, 5 °C, 3 days): 7.2 cm; Weight of root (0.001 mg/l, 5 °C, 3 days): 2.8 g; Area of leaf (0.001 mg/l, 5 °C, 6 days): 14 cm^2; Height (0.001 mg/l, 5 °C, 6 days): 7.5 cm; Weight of root (0.001 mg/l, 5 °C, 6 days): 2.9 g; Area of leaf (0.001 mg/l, 5 °C, 9 days): 15.4 cm^2; Height (0.001 mg/l, 5 °C, 9 days): 7.8 cm; Weight of root (0.001 mg/l, 5 °C, 9 days): 3.0 g; Area of leaf (0.001 mg/l, 5 °C, 12 days): 16 cm^2; Height (0.001 mg/l, 5 °C, 12 days): 7.9 cm; Number of leaf (0.001 mg/l, 5 °C, 12 days): 3; Number of tiller (0.001 mg/l, 5 °C, 12 days): 3; Weight of root (0.001 mg/l, 5 °C, 12 days): 3.7 g; Area of leaf (0.01 mg/l, 1 °C, 3 days): 10 cm^2; Height (0.01 mg/l, 1 °C, 3 days): 7.0 cm; Weight of root (0.01 mg/l, 1 °C, 3 days): 2.8 g; Area of leaf (0.01 mg/l, 1 °C, 6 days): 11.6 cm^2; Height (0.01 mg/l, 1 °C, 6 days): 7.1 cm; Weight of root (0.01 mg/l, 1 °C, 6 days): 3.0 g; Area of leaf (0.01 mg/l, 1 °C, 9 days): 12.4 cm^2; Height (0.01 mg/l, 1 °C, 9 days): 7.4 cm; Weight of root (0.01 mg/l, 1 °C, 9 days): 3.1 g; Area of leaf (0.01 mg/l, 1 °C, 12 days): 13.6 cm^2; Height (0.01 mg/l, 1 °C, 12 days): 7.5 cm; Number of leaf (0.01 mg/l, 1 °C, 12 days): 3; Number of tiller (0.01 mg/l, 1 °C, 12 days): 3; Weight of root (0.01 mg/l, 1 °C, 12 days): 3.9 g; Area of leaf (0.01 mg/l, 2 °C, 3 days): 10.1 cm^2; Height (0.01 mg/l, 2 °C, 3 days): 7.1 cm; Weight of root (0.01 mg/l, 2 °C, 3 days): 2.8 g; Area of leaf (0.01 mg/l, 2 °C, 6 days): 11 cm^2; Height (0.01 mg/l, 2 °C, 6 days): 7.2 cm; Weight of root (0.01 mg/l, 2 °C, 6 days): 3.1 g; Area of leaf (0.01 mg/l, 2 °C, 9 days): 12.5 cm^2; Height (0.01 mg/l, 2 °C, 9 days): 7.4 cm; Weight of root (0.01 mg/l, 2 °C, 9 days): 3 g; Area of leaf (0.01 mg/l, 2 °C, 12 days): 13.4 cm^2; Height (0.01 mg/l, 2 °C, 12 days): 7.5 cm; Number of leaf (0.01 mg/l, 2 °C, 12 days): 3; Number of tiller (0.01 mg/l, 2 °C, 12 days): 3; Weight of root (0.01 mg/l, 2 °C, 12 days): 3.2 g; Area of leaf (0.01 mg/l, 3 °C, 3 days): 10.2 cm^2; Height (0.01 mg/l, 3 °C, 3 days): 7.1 cm; Weight of root (0.01 mg/l, 3 °C, 3 days): 2.5 g; Area of leaf (0.01 mg/l, 3 °C, 6 days): 12 cm^2; Height (0.01 mg/l, 3 °C, 6 days): 7.3 cm; Weight of root (0.01 mg/l, 3 °C, 6 days): 2.7 g; Area of leaf (0.01 mg/l, 3 °C, 9 days): 12.1 cm^2
